Reference: patent publication US11338040B2, “Immunomodulatory compounds” (Leidos, Inc., priority 2020, dated 2022)
Entries after “also recorded” stand apart in the source; their conditions may differ. Non-standard residues stand in square brackets, D forms with d. Residues, ends and D or L forms follow the SMILES beside them. Primed or numbered codes have the meaning given here. No end group written: not given here. PEG4′ = PEG linker of 4 PEG units; PEG4 = NCCOCCOCCOCCOCCC(=O)O

Columns and labels:
[1] = target: T1, PD1 (Homo sapiens, UniProt Q15116); test: PD1/PDL1 cell reporter assay (PathHunter, Jurkat PD1/SHP1 EFC cells co-incubated with PDL1-presenting U2OS cells); format: cell-based; conditions: FIG. 10
T1 construct: expressed in transfected cells; host or cells: Jurkat cells (PD1-EFC and SHP1-EFC) co-cultured with PDL1-presenting U2OS cells
Protocol: Jurkat cells expressing PD1 and SHP1 proteins, each fused to a fragment of enzyme fragment complementation (EFC) system, were co-incubated with PDL1-presenting U2OS cells. […] Cells in co-culture were incubated at room temperature (RT) for 2 h (PD1 assay). The assay signal was generated using the PathHunter Bioassay Detection kit. Microplates were read following signal generation using a PerkinElmer ENVISION™ instrument for chemiluminescent signal detection. Inhibitory peptides or antibodies added to the culture result in reduction of light signal. The degree of inhibition was calculated using the following formula: Percent inhibition=100%×[1−(mean RLU of test sample−mean RLU of vehicle control)/mean RLU of EC80 control−mean RLU of vehicle control)].
Peptide conjugates BT1-BT11 were tested at three concentrations: 3.6 μM, 10.8 μM, 32.5 μM in triplicate wells. peptide conjugates were dissolved in DMSO and serially diluted in assay buffer. The highest concentration that can be tested in this assay was 32.5 μM peptide conjugate (1% DMSO).
Peptides LD12 (SEQ ID NO:9), LD10 (SEQ ID NO:1), and LD16 (SEQ ID NO:10) were tested at three concentrations: 11 μM, 33 μM, 100 μM in triplicate. LD peptides were dissolved in water and serially diluted in assay buffer. RLUs were measured at the end of the assay, and % Inhibition (% Efficiency) was calculated using the formula above.

[2] = target: T2, interaction between LAG3 and MHC-II (Homo sapiens, UniProt P18627); test: HTRF (TR-FRET) LAG3/MHC-II binding assay; conditions: for response in dilution curve (HTRF signal): 10-fold dilutions starting at 100 μM or 10 μM, FIGS. 2A-9B; for IC50: LAG3:MHCII TR-FRET full dilution curves; for effect on HTRF signal: tested at 100 μM, 10 μM, and 1 μM, FIG. 1
T2 construct: purchased Cisbio US Inc
T2 sequence (P18627 23-450 limits assumed): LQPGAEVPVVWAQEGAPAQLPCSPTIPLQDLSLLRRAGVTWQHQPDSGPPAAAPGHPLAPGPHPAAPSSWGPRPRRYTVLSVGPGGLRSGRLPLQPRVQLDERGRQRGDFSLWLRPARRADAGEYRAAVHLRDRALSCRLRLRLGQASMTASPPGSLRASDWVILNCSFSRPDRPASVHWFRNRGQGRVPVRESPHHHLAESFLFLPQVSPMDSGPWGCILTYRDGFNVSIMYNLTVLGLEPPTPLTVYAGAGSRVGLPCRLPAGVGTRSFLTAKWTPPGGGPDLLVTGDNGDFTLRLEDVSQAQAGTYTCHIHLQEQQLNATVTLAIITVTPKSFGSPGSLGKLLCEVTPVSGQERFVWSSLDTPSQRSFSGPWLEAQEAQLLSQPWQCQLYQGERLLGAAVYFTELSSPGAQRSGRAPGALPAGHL
From the text: A Homogeneous Time-resolved Fluorescence (HTRF) LAG3/MHC-II binding assay (Cisbio US Inc.) was used to measure the interaction between MHC-II and LAG3 in the presence of various peptides and peptide conjugates. In this assay, the interaction between Tag1-LAG3 and Tag2-MHC-II is detected by using anti-Tag1-Terbium (HTRF donor) and anti-Tag2-XL665 (HTRF acceptor). When the donor and acceptor antibodies are brought into close proximity due to LAG3 and MHC-II binding, excitation of the donor antibody triggers fluorescent resonance energy transfer (FRET) towards the acceptor antibody, which in turn emits specifically at 665 nm. This specific signal is directly proportional to the extent of LAG3/MHC-II interaction. Thus, an agent that blocks the interaction between LAG3 and MHC-II will cause a reduction in HTRF ratio.
Each of peptide conjugates BT1, BT2, BT3, BT4, BT5, BT6, BT7, BT8, BT9, and peptides LG11 (LAG3-11), LAG3-56 (SEQ ID NO:5), and LAG3-42 (SEQ ID NO:6) was tested at 3 concentrations: 100 μM, 10 μM, and 1 μM. The dashed-lines represent the HTRF ratio readout of a control ovalbumin peptide (OVA, SEQ ID NO:7) (baseline) at the respective concentrations.
peptide conjugates and LG peptides were tested in full dilution curves in the LAG3:MHCII TR-FRET Assay described above to estimate IC50. peptide conjugates were tested starting at 100 μM or 10 μM. LG peptides were tested starting at 100 μM.

[3] = peptide conjugates at 3.6 μM, 10.8 μM, 32.5 μM in triplicate
[4] = LD peptides at 11 μM, 33 μM, 100 μM in triplicate

T1 sequence (Q15116 25-288): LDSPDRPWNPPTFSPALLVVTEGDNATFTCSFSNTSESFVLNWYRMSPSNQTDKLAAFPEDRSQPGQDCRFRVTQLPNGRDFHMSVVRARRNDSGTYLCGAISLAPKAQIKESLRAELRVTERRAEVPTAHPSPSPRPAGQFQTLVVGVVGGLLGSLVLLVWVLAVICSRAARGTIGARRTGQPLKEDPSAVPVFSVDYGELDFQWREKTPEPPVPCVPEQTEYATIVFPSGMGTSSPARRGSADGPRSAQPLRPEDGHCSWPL

Compound | inhibition of PD1 activity (percent inhibition of light signal) [1, 3] | response in dilution curve (HTRF signal) [2] | effect on HTRF signal [2] | other results
CC[C@H](C)[C@H](NC(=O)[C@H](CO)NC(=O)[C@@H](NC(=O)[C@H](CC(C)C)NC(=O)[C@H](CCCNC(=N)N)NC(=O)[C@@H](NC(=O)[C@H](CC(N)=O)NC(=O)[C@@H](NC(=O)[C@@H](NC(=O)[C@H](C)NC(=O)[C@@H]1CCCN1C(=O)[C@H](CC(C)C)NC(=O)[C@H](CO)NC(=O)[C@H](CCC(N)=O)NC(C)=O)[C@@H](C)O)[C@@H](C)CC)C(C)C)[C@@H](C)O)C(=O)N[C@@H](CCC(N)=O)C(=O)NCC(=O)N[C@H](C(=O)N[C@H](CO)C(=O)NCCOCCOCCOCCOCCC(=O)N[C@@H](Cc1c[nH]c2ccccc12)C(=O)N[C@@H](CCC(=O)O)C(=O)NCC(=O)N[C@H](C(=O)NCC(=O)N[C@@H](CCC(N)=O)C(=O)N[C@@H](Cc1c[nH]c2ccccc12)C(=O)N[C@@H](Cc1c[nH]c2ccccc12)C(=O)N[C@@H](CC(=O)O)C(=O)N[C@@H](CCC(=O)O)C(=O)N1CCC[C@H]1C(=O)N[C@@H](Cc1c[nH]c2ccccc12)C(=O)N[C@@H](Cc1c[nH]cn1)C(=O)N[C@@H](CC(C)C)C(=O)N1CCC[C@H]1C(=O)N[C@@H](CCC(=O)O)C(=O)N[C@@H](Cc1c[nH]c2ccccc12)C(=O)N1CCC[C@H]1C(=O)N[C@@H](C)C(=O)N[C@@H](CO)C(N)=O)[C@@H](C)O)[C@@H](C)O [BT6] (Ac-QSLPATINVRLTSIQGT[dS][PEG4]WEGTGQWWDEPWHLPEWPAS-NH2) | did not show inhibition at any of the tested concentrations | reduced the HTRF signal | reduced the HTRF signal | IC50 [2]: 146 nM
CC[C@H](C)[C@H](NC(=O)[C@H](CO)NC(=O)[C@@H](NC(=O)[C@H](CC(C)C)NC(=O)[C@H](CCCNC(=N)N)NC(=O)[C@@H](NC(=O)[C@H](CC(N)=O)NC(=O)[C@@H](NC(=O)[C@@H](NC(=O)[C@H](C)NC(=O)[C@@H]1CCCN1C(=O)[C@H](CC(C)C)NC(=O)[C@H](CO)NC(=O)[C@H](CCC(N)=O)NC(C)=O)[C@@H](C)O)[C@@H](C)CC)C(C)C)[C@@H](C)O)C(=O)N[C@@H](CCC(N)=O)C(=O)NCC(=O)N[C@H](C(=O)N[C@H](CO)C(=O)NCCOCCOCCOCCOCCC(=O)N[C@@H](CO)C(=O)N[C@@H](C)C(=O)N1CCC[C@H]1C(=O)N[C@@H](Cc1c[nH]c2ccccc12)C(=O)N[C@@H](CCC(=O)O)C(=O)N1CCC[C@H]1C(=O)N[C@@H](CC(C)C)C(=O)N[C@@H](Cc1c[nH]cn1)C(=O)N[C@@H](Cc1c[nH]c2ccccc12)C(=O)N1CCC[C@H]1C(=O)N[C@@H](CCC(=O)O)C(=O)N[C@@H](CC(=O)O)C(=O)N[C@@H](Cc1c[nH]c2ccccc12)C(=O)N[C@@H](Cc1c[nH]c2ccccc12)C(=O)N[C@@H](CCC(N)=O)C(=O)NCC(=O)N[C@H](C(=O)NCC(=O)N[C@@H](CCC(=O)O)C(=O)N[C@@H](Cc1c[nH]c2ccccc12)C(N)=O)[C@@H](C)O)[C@@H](C)O [BT7] (Ac-QSLPATINVRLTSIQGT[dS][PEG4]SAPWEPLHWPEDWWQGTGEW-NH2) | reduced the activity of PD1 at one or two of the tested concentrations | reduced the HTRF signal | reduced the HTRF signal | IC50 [2]: ~12.8 nM
Ac-QSLPATINVRLTSIQGT(dS)^2-PEG4-QSLPATINVRLTSIQGT(dS)^2-amide (peptide 1 Ac-QSLPATINVRLTSIQGT[dS][PEG4′]; peptide 2 QSLPATINVRLTSIQGT[dS]-NH2; also: chain 1 C-terminus joined to chain 2 N-terminus via PEG4) [BT11, peptide conjugate of two LD10 peptides (reverse, reverse) separated by a PEG4 linker] | reduced the activity of PD1 at one or two of the tested concentrations | activity at 100 μM | – | response in dilution curve (HTRF signal) ([2]; listed as B11): no or activity only at 100 μM
H2N-(dS)TGQISTLRVNITAPLSQ^1-PEG4-(dS)TGQISTLRVNITAPLSQ^1-amide (peptide 1 H-[dS]TGQISTLRVNITAPLSQ[PEG4′]; peptide 2 [dS]TGQISTLRVNITAPLSQ-NH2; also: chain 1 C-terminus joined to chain 2 N-terminus via PEG4) [BT9, peptide conjugate of two LD10 peptides (forward, forward) separated by a PEG4 linker] | reduced the activity of PD1 at one or two of the tested concentrations | no real effect; also recorded: no or activity only at 100 μM | behaved in this assay like a LAG3 agonist | –
H2N-(dS)TGQISTLRVNITAPLSQ^1-PEG4-QSLPATINVRLTSIQGT(dS)^2-amide [BT10] | reduced the activity of PD1 at one or two of the tested concentrations | activity at 100 μM | – | response in dilution curve (HTRF signal) ([2]; listed as B10): no or activity only at 100 μM
H2N-(dS)TGQISTLRVNITAPLSQ^1-PEG4-WEGTGQWWDEPWHLPEWPAS^4-amide [BT8] | did not show inhibition at any of the tested concentrations | agonistic activity at 100 μM | two concentrations of BT8 reduced the HTRF signal | –
H2N-WEGTGQWWDEPWHLPEWPAS^4-PEG4-(dS)TGQISTLRVNITAPLSQ^1-amide [BT3] | did not show inhibition at any of the tested concentrations | agonistic activity at 100 μM and 10 μM | – | –
LD10da: peptide LD10da (SEQ ID NO:8) (STGQISTLRVNITAPLSQ; LD10da peptide) [reference compound] | – | no response | – | –
LD12: negative control peptide LD12 (SEQ ID NO:9) (CRRTSTGQISTARVNITAPLSQ; LD12 peptide) [reference compound] | – | – | – | inhibition of PD1 activity (percent inhibition of light signal) [1, 4]: did not show inhibition
LD16: positive control peptide LD16 (SEQ ID NO:10) (TSTGQISTLRVNITAPLSQ; LD16 peptide) [reference compound] | – | – | – | inhibition of PD1 activity (percent inhibition of light signal) [1, 4]: Good dose-responses
LG42: peptide LG42 (LAG3-42; SEQ ID NO:6) (DWNFQQWDWKKHNHLDSHVV; LAG3-42 peptide) [reference compound] | – | no response | – | –
STGQISTLRVNITAPLSQ (LD10 peptide, forward orientation) [positive control peptide] | – | – | – | inhibition of PD1 activity (percent inhibition of light signal) [1, 4]: Good dose-responses
